The values that follow come from patent EP0891764B1, “Ethanolic solutions of N-pentadecanoylisoleucine and use thereof in cosmetics” (KASHIMA OIL COMPANY, priority 1997, dated 1999).

The test system of data set [1] is male mice aged 8 weeks of C3H series. As to the kind of experiment: Hair growth (retrichogenous) test on depilated backs of mice, visual observation versus ethanol only. Format: in vivo. Also on record: key: ⓞ: rapid and excellent retrichogenous action; ○: rapid and good retrichogenous action; Δ: slow and slight retrichogenous action. As to conditions: 1% by weight in ethanol, 0.1 mℓ applied to depilated back once a day over 3 weeks; visual comparison with ethanol only. The text has this: The results are given also in Table 1. […] Table 1

Data set [2] is described as follows: Solubility in 70% ethanol at 10°C.
Procedure: A group of eight male mice aged 8 weeks of C3H series with a body weight of 18 to 24g was subjected to depilation at a back portion thereof in a size of about 2× 3.5 cm. Then, each of the N-acylamino acid compounds as shown in Table 1 was dissolved in ethanol to a concentration of 1% by weight as a sample to be tested. Then 0.1 mℓ of the sample were applied to the depilated back portions of the mice once a day over a period of 3 weeks to visually observe the hair growth state. An evaluation was made of the hair growth effect by visually observing the state of trichogenous promotion in comparison with the back portions coated only with ethanol on the basis of the criterion in Table 1.

Regarding `CCCCCCCCCCCCCCC(=O)N[C@H](C(=O)O)C(C)C` [Comp. Example 4, N-PDNY-L-valine], in data set [1], the Retrichogenous effect result is “ⓞ”. In addition, the “Solubility (w/w %)” value in data set [2] was 2.5 w/w %.

Consider `CCCCCCCCCCCCCCC(=O)N[C@H](C(=O)O)[C@@H](C)CC` [Example 1, N-pentadecanoyl-L-isoleucine], for which the Retrichogenous effect result in data set [1] is reported as “ⓞ”. In addition, the “Solubility (w/w %)” value in data set [2] is given as 4.0 w/w %.

Consider `CCCCCCCCCCCCCCC(=O)N[C@@H](C)C(=O)O` [Comp. Example 1, N-PDNY-L-alanine], for which, in data set [1], the Retrichogenous effect result was “ⓞ”. Besides, the “Solubility (w/w %)” value in data set [2] is 0.8 w/w %.

Turning to `CCCCCCCCCCCCCCC(=O)N[C@@H](CCSC)C(=O)O` [Comp. Example 3, N-PDNY-L-methionine], the Retrichogenous effect result in data set [1] was “ⓞ”.

For `CCCCCCCCCCCCCCC(=O)N[C@@H](Cc1ccc(O)cc1)C(=O)O` [Comp. Example 6, N-PDNY-L-tyrosine], in data set [1], the Retrichogenous effect entry was “ⓞ”. Moreover, the “Solubility (w/w %)” value in data set [2] is recorded as 0.7 w/w %.

Regarding `CCCCCCCCCCCCCCC(=O)N[C@@H](CC(=O)O)C(=O)O` [Comp. Example 7, N-PDNY-L-asparatic acid], the Retrichogenous effect entry in data set [1] is “○”. In addition, the “Solubility (w/w %)” value in data set [2] turned out to be 0.3 w/w %.

`CCCCCCCCCCCCCCC(=O)N[C@@H](Cc1ccccc1)C(=O)O` [Comp. Example 5, N-PDNY-L-phenyl-alanine]: the Retrichogenous effect entry in data set [1] is “ⓞ”. In data set [2], the “Solubility (w/w %)” value was 3.7 w/w %.

In the case of `CCCCCCCCCCCCCCC(=O)N[C@@H](CC(C)C)C(=O)O` [Comp. Example 2, N-PDNY-L-leucine], the Retrichogenous effect result in data set [1] is given as “ⓞ”. Further, the “Solubility (w/w %)” value in data set [2] was 2.1 w/w %.
